Read-outs that look alike come from different tables or passages of the source.

In general, IC50 refers to the point on the concentration scale where inhibition reaches its midpoint. A low value points to higher potency.

The subject of one assay is MV411. Put plainly: Cellular assay, cell viability (ATPlite), MV411. The assay is classed as cell-based. The settings on record: MV411 cell line. As for the experimental part:
(§1) The compounds of the invention are also evaluated in the BRD4 dependant cell line for the cellular activity to generate cellular IC50 values.
(§2) Cells (e.g., BRD4 dependant cells) were counted and adjusted to 60,000 cells/mL. Using a Biotek EL406, 50 μL of the cells in media were distributed into 384 well white plates from Thermo. Immediately after plating, compounds of the invention in DMSO were distributed to plates. For large plate sets, cells were returned to a 37° C. incubator while not in use. The compounds were added to plates using a 100 nL 384 well pin transfer manifold on a Janus workstation. Stocks were arrayed in 10 point quadruplicate dose response in DMSO stock in 384-well Greiner compound plates. After addition of the compounds, plates were incubated for three days in a 37° C. incubator. Cell viability was read out using ATPlite from Perkin Elmer. Plates were removed from the incubator and brought to room temperature prior to use. Lyophilized powder was resuspended in lysis buffer and diluted 1:2 with DI water. 25 μL of this solution was added to each well using the Biotek liquid handler. Plates were sealed with adherent aluminum seals prior to vortexing and spinning down at 1000 g for 1 minute. Plates were incubated for 15 minutes at room temperature before signal was read on an Envision Plate Reader.
In general terms: ATP-based viability assays read luminescence as a measure of living cells.

The target of a further assay is BRD4 (Homo sapiens (Human), UniProt O60885). In words: BRD4 IC50 (acetyl-histone binding assay). The procedure: (§3) Assays were performed with minor modifications from the manufacturer's protocol (PerkinElmer, USA). All reagents were diluted in 50 mM HEPES, 150 mM NaCl, 0.1% w/v BSA, and 0.01% w/v Tween 20 at pH 7.5 and allowed to equilibrate to room temperature prior to addition to plates. After addition of Alpha beads to master solutions, all subsequent steps were performed in low light conditions. […] Addition to wells was performed with either a multichannel pipet (for optimization experiments) or a Biotek EL406 liquid handler. After a 1000-rpm spin-down for 1 minute, 100 nL of the solutions of the compounds of the invention from stock plates were added by pin transfer using a Janus Workstation (PerkinElmer, USA). The streptavidin-coated donor beads (25 μg/ml final) were added as with previous solution in a 2×, 10 μL volume. Following this addition, the plates were sealed with foil to block light exposure and to prevent evaporation. The plates were spun down again at 1000 rpm for 1 minute. Next, the plates were incubated in the room with the plate reader (for temperature equilibration) for 1.5 hour prior to reading the assay.

The subject of another assay is 797. In words: Cellular assay, cell viability (ATPlite), 797. Format: cell-based. The following applies: 797 cell line. The procedure: as §1, §2
Another assay concerns the target BRDT (Homo sapiens (Human), UniProt Q58F21). Put plainly: BRDT IC50. The assay is classed as binding. As for the experimental part:
as §3

Another assay relates to MOLM-13. In words: Cellular assay, cell viability (ATPlite), MOLM-13. Format: cell-based. The following applies: MOLM-13 cell line. The procedure:
as §1, §2

In the next assay the test system is NOMO-1. Put plainly: Cellular assay, cell viability (ATPlite), NOMO-1. The assay is classed as cell-based. The settings on record: NOMO-1 cell line. The procedure: as §1, §2
The target of another assay is LRRK2 (Homo sapiens (Human), UniProt Q5S007). Put plainly: LRRK2 IC50. Format: biochemical.
Chain of LRRK2 (Q5S007 whole entry): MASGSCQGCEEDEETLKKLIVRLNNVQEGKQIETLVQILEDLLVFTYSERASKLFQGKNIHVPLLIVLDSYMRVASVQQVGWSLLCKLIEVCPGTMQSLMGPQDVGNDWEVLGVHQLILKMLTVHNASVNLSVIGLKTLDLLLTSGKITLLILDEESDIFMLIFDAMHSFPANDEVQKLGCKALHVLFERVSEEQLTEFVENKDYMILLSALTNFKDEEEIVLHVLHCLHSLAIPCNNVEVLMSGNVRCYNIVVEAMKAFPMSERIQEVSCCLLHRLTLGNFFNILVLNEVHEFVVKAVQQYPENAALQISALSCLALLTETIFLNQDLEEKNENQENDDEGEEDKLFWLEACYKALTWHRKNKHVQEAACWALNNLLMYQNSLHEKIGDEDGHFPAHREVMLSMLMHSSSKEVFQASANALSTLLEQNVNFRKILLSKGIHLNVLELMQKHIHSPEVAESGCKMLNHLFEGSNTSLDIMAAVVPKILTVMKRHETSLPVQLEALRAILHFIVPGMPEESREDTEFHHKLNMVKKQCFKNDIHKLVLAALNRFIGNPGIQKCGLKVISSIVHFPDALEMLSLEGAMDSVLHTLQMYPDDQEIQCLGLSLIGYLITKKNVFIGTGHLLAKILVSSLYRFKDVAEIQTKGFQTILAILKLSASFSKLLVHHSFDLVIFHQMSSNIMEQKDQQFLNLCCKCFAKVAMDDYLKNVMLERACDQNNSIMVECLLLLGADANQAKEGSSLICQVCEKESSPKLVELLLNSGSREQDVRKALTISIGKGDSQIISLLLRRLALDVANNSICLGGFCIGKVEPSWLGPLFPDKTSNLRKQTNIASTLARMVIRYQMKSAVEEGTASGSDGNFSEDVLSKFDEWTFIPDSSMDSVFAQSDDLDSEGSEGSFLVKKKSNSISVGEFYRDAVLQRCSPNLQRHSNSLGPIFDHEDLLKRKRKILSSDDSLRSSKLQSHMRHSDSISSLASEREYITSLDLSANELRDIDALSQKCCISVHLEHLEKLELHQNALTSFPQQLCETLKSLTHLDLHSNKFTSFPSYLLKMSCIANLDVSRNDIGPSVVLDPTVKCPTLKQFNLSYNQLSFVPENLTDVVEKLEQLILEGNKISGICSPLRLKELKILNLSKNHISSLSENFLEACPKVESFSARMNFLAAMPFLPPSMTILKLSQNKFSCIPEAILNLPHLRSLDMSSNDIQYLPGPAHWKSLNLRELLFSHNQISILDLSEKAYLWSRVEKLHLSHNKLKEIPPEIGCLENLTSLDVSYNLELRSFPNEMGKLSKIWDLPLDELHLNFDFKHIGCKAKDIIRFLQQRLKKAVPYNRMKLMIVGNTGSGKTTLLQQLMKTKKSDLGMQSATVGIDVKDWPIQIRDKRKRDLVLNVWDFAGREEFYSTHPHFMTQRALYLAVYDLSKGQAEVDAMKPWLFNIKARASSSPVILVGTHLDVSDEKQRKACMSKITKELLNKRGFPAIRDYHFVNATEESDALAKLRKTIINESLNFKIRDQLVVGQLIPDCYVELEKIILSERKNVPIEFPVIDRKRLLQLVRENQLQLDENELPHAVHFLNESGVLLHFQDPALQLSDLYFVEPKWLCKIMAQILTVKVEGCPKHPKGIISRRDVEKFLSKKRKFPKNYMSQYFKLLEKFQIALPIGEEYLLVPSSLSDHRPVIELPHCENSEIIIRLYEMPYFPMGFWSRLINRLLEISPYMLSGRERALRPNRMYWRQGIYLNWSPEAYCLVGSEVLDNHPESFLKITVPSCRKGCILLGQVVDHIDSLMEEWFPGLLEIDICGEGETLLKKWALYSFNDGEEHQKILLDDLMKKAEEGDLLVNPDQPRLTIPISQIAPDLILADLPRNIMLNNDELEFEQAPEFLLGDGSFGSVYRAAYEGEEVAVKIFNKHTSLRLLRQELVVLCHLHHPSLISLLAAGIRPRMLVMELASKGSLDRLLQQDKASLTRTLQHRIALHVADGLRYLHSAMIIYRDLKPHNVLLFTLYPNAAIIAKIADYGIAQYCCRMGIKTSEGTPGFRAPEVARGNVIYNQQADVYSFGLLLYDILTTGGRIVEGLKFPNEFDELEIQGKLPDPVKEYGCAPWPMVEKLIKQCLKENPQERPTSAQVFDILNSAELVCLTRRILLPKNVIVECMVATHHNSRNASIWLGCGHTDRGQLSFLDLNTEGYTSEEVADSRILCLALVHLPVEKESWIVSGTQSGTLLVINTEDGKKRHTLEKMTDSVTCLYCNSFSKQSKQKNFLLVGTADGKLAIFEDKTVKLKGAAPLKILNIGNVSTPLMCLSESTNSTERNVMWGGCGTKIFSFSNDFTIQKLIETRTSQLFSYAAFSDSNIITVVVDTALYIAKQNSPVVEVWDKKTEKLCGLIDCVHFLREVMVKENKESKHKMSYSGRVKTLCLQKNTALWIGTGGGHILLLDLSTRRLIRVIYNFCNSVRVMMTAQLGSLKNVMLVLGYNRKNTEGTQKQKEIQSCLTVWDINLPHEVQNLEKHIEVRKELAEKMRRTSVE
The next assay relates to TF-1. In words: Cellular assay, cell viability (ATPlite), TF-1. Format: cell-based. The following applies: TF-1 cell line. As for the experimental part: as §1, §2
The target in a further assay is AURKC (Homo sapiens (Human), UniProt Q9UQB9). In words: AURKC IC50. The assay is classed as biochemical.
Chain of AURKC (Q9UQB9 whole entry): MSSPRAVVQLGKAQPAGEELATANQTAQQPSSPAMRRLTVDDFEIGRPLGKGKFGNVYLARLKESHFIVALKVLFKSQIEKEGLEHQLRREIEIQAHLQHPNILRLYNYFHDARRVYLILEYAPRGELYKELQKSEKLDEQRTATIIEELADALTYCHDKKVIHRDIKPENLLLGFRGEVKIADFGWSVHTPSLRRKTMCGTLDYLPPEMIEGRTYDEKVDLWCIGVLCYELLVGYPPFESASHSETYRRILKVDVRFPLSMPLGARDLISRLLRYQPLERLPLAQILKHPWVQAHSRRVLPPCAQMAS
A further assay addresses AURKA (Homo sapiens (Human), UniProt O14965). In words: AURKA IC50. The assay is classed as biochemical.
The target of the next assay is AURKB (Homo sapiens (Human), UniProt Q96GD4). In words: AURKB IC50. Format: biochemical.
Chain of AURKB (Q96GD4 whole entry): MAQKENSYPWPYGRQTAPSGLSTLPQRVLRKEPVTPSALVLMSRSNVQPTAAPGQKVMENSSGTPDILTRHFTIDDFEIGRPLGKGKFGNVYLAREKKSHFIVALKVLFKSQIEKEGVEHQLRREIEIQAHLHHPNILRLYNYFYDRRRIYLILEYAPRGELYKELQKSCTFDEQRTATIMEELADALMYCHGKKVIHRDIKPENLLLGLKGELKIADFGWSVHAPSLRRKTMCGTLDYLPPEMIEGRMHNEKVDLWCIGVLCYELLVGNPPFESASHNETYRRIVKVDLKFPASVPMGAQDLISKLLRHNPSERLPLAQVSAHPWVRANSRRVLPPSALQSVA
A further assay relates to Kasumi-1. Put plainly: Cellular assay, cell viability (ATPlite), Kasumi-1. The settings on record: Homo sapiens; Kasumi-1 cell line. Format: cell-based. As for the experimental part:
as §1, §2

Where [1] appears, read: first BRD4 value listed for the compound.
The mark [2] stands for this setting: second BRD4 value listed for the compound.

Chain of AURKA (O14965 whole entry): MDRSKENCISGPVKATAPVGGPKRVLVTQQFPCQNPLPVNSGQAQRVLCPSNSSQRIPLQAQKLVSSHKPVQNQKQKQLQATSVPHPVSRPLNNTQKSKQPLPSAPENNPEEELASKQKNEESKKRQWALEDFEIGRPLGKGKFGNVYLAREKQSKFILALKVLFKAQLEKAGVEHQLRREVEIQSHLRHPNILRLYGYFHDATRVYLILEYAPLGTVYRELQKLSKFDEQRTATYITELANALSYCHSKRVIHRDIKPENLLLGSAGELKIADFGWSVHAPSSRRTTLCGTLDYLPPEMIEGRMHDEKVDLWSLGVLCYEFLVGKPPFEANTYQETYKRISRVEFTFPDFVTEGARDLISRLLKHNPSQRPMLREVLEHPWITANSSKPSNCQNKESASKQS

As to `COc1cc(C(=O)N2CCC(N3CCN(C)CC3)CC2)ccc1Nc1ccc2c(n1)N(C)c1ccccc1C(=O)N2C` [Compound 3], the IC50 in the assay with MV411 (Homo sapiens, MV4-11) turned out to be 1.42 µM; on BRD4 (setting [1]), 1.37 µM; on BRD4 (setting [2]), 0.813 µM; in the assay on 797, 2.49 µM; against BRDT, 3.68 µM; in the assay with MOLM-13 (Homo sapiens), 2.92 µM. Besides, the IC50 in the assay with NOMO-1 (Homo sapiens) was 7.23 µM; on LRRK2 it was more than 10 µM.

Take `C[C@@H](Oc1cc(-n2cnc3ccc(CN4CCN(C)CC4)cc32)sc1C(N)=O)c1ccccc1C(F)(F)F` [GSK461364, reference compound]: the “TF-1 IC50” value in the assay with TF-1 (result in words) is recorded as “poor convergence”. Also, the IC50 at BRD4 and at BRDT was more than 50 µM throughout.

Take `CN1C(=O)c2ccccc2N(C)c2nc(Nc3ccc(S(N)(=O)=O)cc3)ccc21` [Compound 2-221]: the IC50 in the assay with MV411 was 3.25 µM; on BRD4 (setting [1]), 2.99 µM; on BRD4 (setting [2]), 3.27 µM; in the assay on 797, 9.28 µM; on AURKC, more than 10 µM; against AURKA it was more than 10 µM. Further, the IC50 against BRDT is 5.66 µM; on AURKB it was more than 10 µM; in the assay on MOLM-13 it was 10.9 µM; in the assay on NOMO-1 it was more than 20 µM.

Turning to `COc1cc(C(=O)NC2CCN(C)CC2)ccc1Nc1ccc2c(n1)N(C)c1ccccc1C(=O)N2C` [Compound 2-227], the IC50 in the assay on MV411 amounted to 1.95 µM; on BRD4 (setting [1]) it was 2.14 µM; on BRD4 (setting [2]) it was 1.87 µM; with 797, 5.76 µM; against BRDT, 5.41 µM; in the assay with MOLM-13, 4.25 µM. Moreover, the half-inhibitory concentration (IC50) in the assay with NOMO-1 is 6.36 µM; at LRRK2 it was more than 10 µM.

In the case of `Cc1sc2c(c1C)C(c1ccc(Cl)cc1)=N[C@@H](CC(=O)OC(C)(C)C)c1nnc(C)n1-2` [JQ1, reference compound], the IC50 was determined as 0.109 µM with TF-1 (Homo sapiens); 0.0656 µM in the assay on MV411 (Homo sapiens, MV4-11); 0.092 µM in the assay on 797; 0.0488 µM in the assay with Kasumi-1; 0.0892 µM with MOLM-13 (Homo sapiens); 0.172 µM in the assay with NOMO-1 (Homo sapiens).

(Values after US9695172B2, “Diazepane derivatives and uses thereof” (Dana-Farber Cancer Institute, Inc., priority 2014, dated 2017).)
